The results in this text go back to patent US20070117770A1, “Human ribosomal DNA (rDNA) and ribosomal RNA (rRNA) nucleic acids and uses thereof” (Cylene Pharmaceuticals, Inc., priority 2005, published 2007).

Common to all, as to experiment: Protein kinase inhibition assay
Holding throughout (format): biochemical

In one experiment the target is Plk3(h) (Homo sapiens, UniProt Q9H4B4). The following applies: read-out: percent residual activity of Plk3(h). Here is the method: (§1) Certain compounds were tested for activity in protein kinase inhibition assays. All substrates were dissolved and diluted to working stocks in de-ionized water, apart from histone H1 (10× working stock in 20 mM MOPS pH 7.0), PDKtide (10× working stock in 50 mM Tris pH 7.0) ATF2 (which is typically stored at a 20× working stock in 50 mM Tris pH 7.5, 150 mM NaCl, 0.1 mM EGTA, 0.03% Brij-35, 50% glycerol, 1 mM benzamidine, 0.2 mM PMSF and 0.1% R-mercaptoethanol), KKLNRTLSFAEPG (SEQ ID NO:203) and RRRLSFAEPG (SEQ ID NO:204) (50 mM HEPES pH 7.4) and GGEEEEYFELVKKKK (SEQ ID NO:205) (20 mM MOPS pH 7.0). All kinases were pre-diluted to a 10× working concentration prior to addition into the assay. The composition of the dilution buffer for each kinase is detailed below.
(§2) In a final reaction volume of 25 μl, Plk3 (h) (5-10 mU) is incubated with 8 mM MOPS pH 7.0, 0.2 mM EDTA, 2 mg/ml casein, 10 mM MgAcetate and [gamma-33P-ATP] (specific activity approx. 500 cpm/pmol, concentration as required). The reaction is initiated by the addition of the MgATP mix. After incubation for 40 minutes at room temperature, the reaction is stopped by the addition of 5 μl of a 3% phosphoric acid solution. 10 μl of the reaction is then spotted onto a P30 filtermat and washed three times for 5 minutes in 75 mM phosphoric acid and once in methanol prior to drying and scintillation counting.

The target in a further experiment is PKCβII(h) (Homo sapiens, UniProt P05771). The following applies: read-out: percent residual activity of PKCβII(h). Here is the method:
as §1
In a final reaction volume of 25 μl, PKCβII (h) (5-10 mU) is incubated with 20 mM HEPES pH 7.4, 0.03% Triton X-100, […], 0.1 mg/ml phosphatidylserine, 10 μg/ml diacylglycerol, 0.1 mg/ml histone H1, 10 mM MgAcetate and [gamma-33P-ATP] (specific activity approx. 500 cpm/pmol, concentration as required). The reaction is initiated by the addition of the MgATP mix. After incubation for 40 minutes at room temperature, the reaction is stopped by the addition of 5 μl of a 3% phosphoric acid solution. […]

A further experiment has as its target DDR2(h) (Homo sapiens, UniProt Q16832). The following applies: read-out: percent residual activity of DDR2(h). Here is the method: as §1
In a final reaction volume of 25 μl, DDR2 (h) (5-10 mU) is incubated with 8 mM MOPS pH 7.0, 0.2 mM EDTA, 250 μM KKSRGDYMTMQIG (SEQ ID NO:210), 10 mM MnCl2, 10 mM MgAcetate and [y-33P-ATP] (specific activity approx. 500 cpm/pmol, concentration as required). The reaction is initiated by the addition of the MgATP mix. After incubation for 40 minutes at room temperature, the reaction is stopped by the addition of 5 μl of a 3% phosphoric acid solution. […]

The next experiment deals with SGK(h) (Homo sapiens, UniProt O00141). The following applies: read-out: percent residual activity of SGK(h). The method, then:
as §1
as §2, with “SGK” for “Plk3”, “30 μM GRPRTSSFAEGKK (SEQ ID NO:226),” for “2 mg/ml casein,”

The target in another experiment is NEK2(h) (Homo sapiens, UniProt P51955). The following applies: read-out: percent residual activity of NEK2(h). The method, then: as §1
as §2, with “μl, NEK2” for “μl, Plk3”, “EDTA, 0.33” for “EDTA, 2”, “mg/ml myelin basic protein,” for “mg/ml casein,”

A further experiment concerns the target Ret(h) (Homo sapiens, UniProt P07949). The conditions noted are these: read-out: percent residual activity of Ret(h). Here is the method: as §1
as §2, with “Ret” for “Plk3”, “250 μM KKKSPGEYVNIEFG (SEQ ID NO:207),” for “2 mg/ml casein,”

PKCβII(h), sequence (P05771 1-673 isoform P05771-2): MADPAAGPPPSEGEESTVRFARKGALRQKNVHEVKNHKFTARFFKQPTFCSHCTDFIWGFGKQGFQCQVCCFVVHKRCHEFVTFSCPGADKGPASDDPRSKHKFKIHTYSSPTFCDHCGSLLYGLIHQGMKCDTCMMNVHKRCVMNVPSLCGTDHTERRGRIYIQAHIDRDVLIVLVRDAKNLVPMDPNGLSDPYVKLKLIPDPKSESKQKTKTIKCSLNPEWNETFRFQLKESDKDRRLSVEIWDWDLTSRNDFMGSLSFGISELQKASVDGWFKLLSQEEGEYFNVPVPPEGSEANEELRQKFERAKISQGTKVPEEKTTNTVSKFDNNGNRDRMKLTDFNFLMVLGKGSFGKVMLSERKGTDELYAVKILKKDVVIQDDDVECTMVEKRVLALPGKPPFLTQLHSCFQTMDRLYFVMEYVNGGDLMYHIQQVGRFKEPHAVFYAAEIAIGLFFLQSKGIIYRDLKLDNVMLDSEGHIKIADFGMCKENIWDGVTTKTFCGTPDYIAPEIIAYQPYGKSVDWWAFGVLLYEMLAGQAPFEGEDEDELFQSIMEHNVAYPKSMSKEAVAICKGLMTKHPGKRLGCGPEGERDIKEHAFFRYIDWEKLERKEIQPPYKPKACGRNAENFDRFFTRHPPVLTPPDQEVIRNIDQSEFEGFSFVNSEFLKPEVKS
NEK2(h), sequence (P51955 whole entry): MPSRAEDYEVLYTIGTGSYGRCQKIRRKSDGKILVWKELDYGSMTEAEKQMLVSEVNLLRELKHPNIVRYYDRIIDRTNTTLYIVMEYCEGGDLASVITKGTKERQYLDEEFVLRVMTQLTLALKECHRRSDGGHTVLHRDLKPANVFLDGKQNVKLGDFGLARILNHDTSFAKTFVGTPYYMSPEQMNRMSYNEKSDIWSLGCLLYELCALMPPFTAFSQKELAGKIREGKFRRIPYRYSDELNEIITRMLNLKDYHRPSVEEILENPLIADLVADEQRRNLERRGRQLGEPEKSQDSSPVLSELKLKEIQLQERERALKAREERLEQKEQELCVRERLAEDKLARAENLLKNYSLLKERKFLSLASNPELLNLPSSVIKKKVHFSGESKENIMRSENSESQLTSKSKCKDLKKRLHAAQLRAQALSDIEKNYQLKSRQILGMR
Plk3(h), sequence (Q9H4B4 whole entry): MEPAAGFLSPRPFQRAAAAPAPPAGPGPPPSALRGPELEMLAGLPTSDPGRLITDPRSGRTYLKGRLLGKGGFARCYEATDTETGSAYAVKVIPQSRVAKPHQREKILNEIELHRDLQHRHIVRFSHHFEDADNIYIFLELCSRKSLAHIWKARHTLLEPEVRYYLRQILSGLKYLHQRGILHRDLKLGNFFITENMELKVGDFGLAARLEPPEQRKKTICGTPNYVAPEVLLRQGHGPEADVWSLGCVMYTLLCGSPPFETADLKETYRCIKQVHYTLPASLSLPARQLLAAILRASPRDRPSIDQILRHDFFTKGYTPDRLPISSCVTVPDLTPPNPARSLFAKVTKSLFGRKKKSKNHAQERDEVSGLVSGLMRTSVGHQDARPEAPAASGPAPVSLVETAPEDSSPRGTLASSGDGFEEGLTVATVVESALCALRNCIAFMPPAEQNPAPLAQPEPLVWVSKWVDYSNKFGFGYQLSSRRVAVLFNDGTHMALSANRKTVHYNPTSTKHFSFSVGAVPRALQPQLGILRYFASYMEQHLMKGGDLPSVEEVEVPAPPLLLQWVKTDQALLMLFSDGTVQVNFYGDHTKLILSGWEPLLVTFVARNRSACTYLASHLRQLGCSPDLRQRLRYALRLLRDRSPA
DDR2(h), sequence (Q16832 22-855): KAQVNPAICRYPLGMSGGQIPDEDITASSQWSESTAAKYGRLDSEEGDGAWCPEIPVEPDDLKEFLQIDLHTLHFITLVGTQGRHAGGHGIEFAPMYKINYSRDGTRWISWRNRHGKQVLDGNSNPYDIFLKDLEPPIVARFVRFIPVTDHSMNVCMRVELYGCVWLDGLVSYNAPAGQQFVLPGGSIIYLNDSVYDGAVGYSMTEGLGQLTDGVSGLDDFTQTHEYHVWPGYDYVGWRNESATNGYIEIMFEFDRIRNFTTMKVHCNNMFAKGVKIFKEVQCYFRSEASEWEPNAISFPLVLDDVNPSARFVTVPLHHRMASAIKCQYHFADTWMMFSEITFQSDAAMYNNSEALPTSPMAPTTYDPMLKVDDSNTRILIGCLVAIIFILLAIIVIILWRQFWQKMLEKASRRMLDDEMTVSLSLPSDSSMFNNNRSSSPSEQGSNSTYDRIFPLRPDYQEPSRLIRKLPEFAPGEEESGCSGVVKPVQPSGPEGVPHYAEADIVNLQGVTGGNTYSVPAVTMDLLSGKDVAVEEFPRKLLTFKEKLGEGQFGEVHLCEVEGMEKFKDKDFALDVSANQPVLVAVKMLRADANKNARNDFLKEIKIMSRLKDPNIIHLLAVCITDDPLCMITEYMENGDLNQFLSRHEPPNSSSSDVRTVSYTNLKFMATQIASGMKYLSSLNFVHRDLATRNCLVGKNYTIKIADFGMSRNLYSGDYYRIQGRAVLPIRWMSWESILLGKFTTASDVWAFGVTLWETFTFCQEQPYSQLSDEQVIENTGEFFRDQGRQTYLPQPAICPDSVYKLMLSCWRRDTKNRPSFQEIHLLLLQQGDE
SGK(h), sequence (O00141 whole entry): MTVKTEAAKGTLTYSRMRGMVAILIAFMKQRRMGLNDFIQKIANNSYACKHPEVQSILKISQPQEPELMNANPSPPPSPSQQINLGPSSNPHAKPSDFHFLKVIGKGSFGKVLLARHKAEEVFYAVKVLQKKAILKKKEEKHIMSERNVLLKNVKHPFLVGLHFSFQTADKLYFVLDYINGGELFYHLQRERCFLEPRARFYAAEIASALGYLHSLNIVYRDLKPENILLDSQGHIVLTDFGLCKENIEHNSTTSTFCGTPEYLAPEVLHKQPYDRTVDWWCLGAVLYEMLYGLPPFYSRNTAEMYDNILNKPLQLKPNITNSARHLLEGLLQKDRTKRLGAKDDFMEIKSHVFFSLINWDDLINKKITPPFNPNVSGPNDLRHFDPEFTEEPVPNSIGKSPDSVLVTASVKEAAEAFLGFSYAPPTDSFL
Ret(h), sequence (P07949 29-1114): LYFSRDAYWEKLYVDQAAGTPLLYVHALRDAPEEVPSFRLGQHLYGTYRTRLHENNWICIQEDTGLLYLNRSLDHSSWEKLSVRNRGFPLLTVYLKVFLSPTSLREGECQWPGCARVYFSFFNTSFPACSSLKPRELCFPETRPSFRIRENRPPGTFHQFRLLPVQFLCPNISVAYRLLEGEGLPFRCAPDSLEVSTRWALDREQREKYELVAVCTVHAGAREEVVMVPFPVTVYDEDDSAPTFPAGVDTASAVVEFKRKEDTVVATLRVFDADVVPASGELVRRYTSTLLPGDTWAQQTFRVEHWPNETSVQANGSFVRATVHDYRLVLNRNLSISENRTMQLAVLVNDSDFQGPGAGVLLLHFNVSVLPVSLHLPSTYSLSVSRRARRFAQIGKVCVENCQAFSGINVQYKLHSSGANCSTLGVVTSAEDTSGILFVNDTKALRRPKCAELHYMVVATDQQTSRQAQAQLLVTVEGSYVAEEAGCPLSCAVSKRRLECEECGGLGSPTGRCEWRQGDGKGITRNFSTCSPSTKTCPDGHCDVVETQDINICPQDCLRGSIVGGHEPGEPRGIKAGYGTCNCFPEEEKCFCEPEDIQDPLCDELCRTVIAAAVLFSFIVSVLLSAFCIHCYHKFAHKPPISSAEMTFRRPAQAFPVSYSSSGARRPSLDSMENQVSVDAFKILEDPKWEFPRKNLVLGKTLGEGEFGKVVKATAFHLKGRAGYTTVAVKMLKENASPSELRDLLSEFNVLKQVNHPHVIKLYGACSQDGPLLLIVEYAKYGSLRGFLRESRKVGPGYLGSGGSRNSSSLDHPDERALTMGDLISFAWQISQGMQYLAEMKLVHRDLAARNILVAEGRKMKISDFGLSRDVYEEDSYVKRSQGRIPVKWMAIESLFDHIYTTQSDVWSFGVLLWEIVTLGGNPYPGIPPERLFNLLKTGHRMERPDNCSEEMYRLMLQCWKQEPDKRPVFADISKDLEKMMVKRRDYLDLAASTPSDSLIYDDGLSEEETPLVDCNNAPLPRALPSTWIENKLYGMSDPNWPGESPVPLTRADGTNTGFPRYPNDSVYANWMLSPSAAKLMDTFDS

For the compound `CN1CCCC1CCNC(=O)c1cn2c3c(c(N4CCC(c5cnccn5)C4)c(F)cc3c1=O)Oc1cc3ccccc3cc1-2` (stereo not drawn) [Compound A-1], the remaining activity at 2.5 µM on Plk3(h) worked out at 92%; at PKCβII(h), 94%; at DDR2(h), 77%; at SGK(h), 50%; at NEK2(h), 65%; at Ret(h), 123%.
Take `CC(=O)N1CCN(c2ccc3c(=O)c(C(=O)NCCN4CCCC4)c4n(C)c5ccccc5n4c3n2)CC1` [Compound B-1]: the remaining activity at 2.5 µM on Plk3(h) was 86%; at PKCβII(h), 99%; at DDR2(h) it was 95%; on SGK(h), 103%; on NEK2(h), 106%; at Ret(h), 92%.
